Results from PMC6855259, “Acylation-coupled lipophilic induction of polarisation (Acyl-cLIP): a universal assay for lipid transferase and hydrolase enzymes” (Chemical Science, 2019).
pEC50, pIC50: −log10 of the molar value. Structures can show the parent of a compound that is named as a salt. Where two headings read alike, the source gives them in different places. One block for each compound: values may come before it. Where a SMILES comes first, the peptide text is derived from it. Where no end group is shown, it is not given here.

Tests used:
HHAT [1] = molecular target: T1, HHAT (Homo sapiens, UniProt Q5VTY9); experiment: HHAT Acyl-cLIP assay with HHAT-P100(sol): SHH-FAM palmitoylation, dose-response and kinetics; type: biochemical
T1 construct: FLAG (C); His (C); made in house; host or cells: HEK293a cells stably overexpressing HHAT-FLAG-His
Description: Recombinant Protein Production
HHAT-enriched solubilised membrane fractions (HHAT-P100(sol)) were prepared as previously described,[4] with the following modifications. HEK293a cells overexpressing HHAT-FLAG-His (HEK293a HHAT+) were cultured, harvested by trypsinisation, and washed with PBS as previously described.[9] Cells (5 × 106) in DMEM/FBS (35 mL) were inoculated on sterilised CultiSphere S microcarriers (100 mg) in a spinner flask (Corning), and incubated as previously described. After 24 h, DMEM/FBS (15 mL) was added and cells incubated with stirring (~30 rpm), with addition on DMEM/FBS (50 mL) after 24 h. DMEM/FBS (50 mL) was refreshed every subsequent 24 h. After 5 days, microcarriers were collected by centrifugation (1,000 g, 1 min), and washed with PBS (25 mL). Microcarriers were digested with trypsin (3 mL) with visual monitoring by microscopy (5-15 min, see Supplementary Figure S11D) to release HEK293a HHAT+ cells, which were washed with DMEM/FBS (25 mL) and PBS […]
(25 mL). […]
25 kPSI through a Cell Disruptor (Constant Systems). Lysates were cleared by centrifugation (20,000 g, 30 min, 4 °C), and the supernatant passed through a HisTrap™ Fast Flow column (GE Healthcare). Bound protein was eluted with elution buffer (50 mM TRIS, 150 mM NaCl, 300 mM imidazole, pH 8.8), and concentrated to 2 mL in a Protein Concentrator PES (Pierce, 10,000 MWCO). The sample was cleared by centrifugation (20,000 g, 5 min, 4 °C) and purified using a S75 16/600 gel filtration column (Generon), eluting with storage buffer (50 mM TRIS, 150 mM NaCl, pH 7.4). Fractions containing protein were pooled, concentrated (5 mg/mL APT1, 4 mg/mL APT2), flash frozen, and stored at −80 °C.
Fluorescence measurements were recorded on an EnVision Xcite 2104 (PerkinElmer).
FAM-labelled peptides were measured using a FITC FP D505fp mirror module, FITC FP 480 nm excitation filter (30 nm bandwidth), FITC FP P-pol 535 nm first emission filter (40 nm bandwidth), and FITC FP S-pol 535 nm second emission filter (40 nm bandwidth). Continuous reaction monitoring was conducted using measurement height = 9.52 mm, 8 flashes/well, PMT gain = 319, and G-factor = 1.09. For the HHAT pilot screen, stopped-assay measurements were performed using measurement height = 9.52 mm, 60 flashes/well, PMT gain = 319, and G-factor = 1.09. The NMT acyl-cLIP assay continuous reaction monitoring was conducted using measurement height = 6.6 mm, 1 flash/well, PMT gain = 163, and G- […]
TAMRA-labelled peptides were measured using a BODIPY TMR FP D555fp mirror module, BODIPY TMR FP 531 nm excitation filter (25 nm bandwidth), BODIPY TMR FP P-pol 579 nm first emission filter (25 nm bandwidth), and BODIPY TMR FP S-pol 579 nm second emission filter (25 nm bandwidth). Continuous reaction monitoring was conducted using measurement height = 6.5 mm, 200 flashes/well, PMT gain = 255, and G-factor = 1.6.
HHAT-P100(sol) (450 µg/mL) in solubilisation buffer (20 mM HEPES, 350 mM NaCl, 1% (w/v) DDM, 5% glycerol, pH 7.3) was diluted 1:10 in SHH-FAM (2 µM) in reaction buffer (100 mM MES, 20 mM NaCl, 1 mM DTT, 1 mM TCEP, 0.1% (w/v) BSA, pH 6.5). The HHAT/SHH-FAM solution (12 µL/well) was dispensed into a black 384-well plate (Corning, 3575). The reaction was initiated by addition of Pal-CoA (7.5 µM) in reaction buffer (8 µL/well), and fluorescence readings collected every 1 min for 1 h. Under stopped-assay conditions, the reaction was halted by addition of SHH (220 µM) in reaction buffer (2 µL).
Detergents (2 mM) or BSA (0.15 mM) were tested for generation of polarised fluorescence from Pal-SHH-FAM or SHH-FAM (0.1 µM) in 100 mM MES, 20 mM NaCl. Detergent and BSA titrations were performed using 2-fold serial dilutions.
Small molecule inhibitors in DMSO were dispensed using an Echo 550 liquid handler (Labcyte), with a DMSO backfill volume of 50 nL. Substrate competitors SHH, SHH(FL), or Pal-SHH were serially diluted in reaction buffer (1:3) prior to addition to the HHAT/SHH-FAM […]
solution. […]

HHAT [2] = molecular target: T1, HHAT; experiment: Pilot HTS Acyl-cLIP screen of FDA-approved drugs, purified HHAT, stopped-assay conditions; type: biochemical; details: compounds screened at 25 μM
[3] = test system: SHH acylation in HEK-293 SHH+ cells; experiment: In-cell YnC15 tagging assay of SHH acylation; type: cell-based, human; details: inhibitors 20 µM, YnC15, AzTB ligation
Description: In-Cell YnC15 Tagging Assay
HEK293a SHH+ cells (500,000 cells/well) were plated in a 6-well plate in DMEM/FBS (3 mL/well) and cultured for 24 h. Cells were treated with inhibitors in DMSO (20 µM), two RUSKI-201 (20 µM) blind-positive controls and two DMSO (7.5 µL) blind-negative controls.
After 1 h, YnC15 (3 µL, 20 mM in DMSO) was added and cells cultured for a further 6 h before washing with PBS. Cells were lysed in PBS with Triton X-100 (1%), SDS (0.1% (w/v)) and Complete EDTA-free protease inhibitor cocktail (Roche Diagnostics). Cells were removed from plates by scraping, and lysates centrifuged (13,000 g, 10 min, 4 °C). The protein concentration of the supernatant was estimated using the DC Protein Assay (Bio-Rad) and adjusted to 1 mg/mL with lysis buffer. AzTB (1 µL, 10 mM in DMSO), CuSO4 (2 µL, 50 mM in H2O), TCEP (2 µL, 50 mM in H2O) and TBTA (1 µL, 10 mM in DMSO) were combined, and this mixture (6 µL) added to the lysate (100 µL). Samples were shaken at RT for 1 h, then proteins precipitated by addition of methanol (200 µL), chloroform (50 µL) and water (100 µL) followed by centrifugation (13,000 g, 5 min, 4 °C). The upper aqueous layer was removed without disturbing the protein layer at the interphase, methanol (0.5 mL) was added, and the precipitated proteins isolated by centrifugation (13,000 g, 10 min, 4 °C). Protein pellets were […]
washed twice with methanol, briefly air-dried and re-dissolved in PBS containing SDS (0.2% (w/v)) and DTT (0.1 mM) using sonication to a final concentration of 1 mg/mL.
10 µg of protein were separated on a 15% SDS-polyacrylamide gel. Fluorescence was recorded using a Typhoon imager (GE Healthcare; excitation laser: 532 nm, emission filter:
Proteins were transferred to a nitrocellulose membrane by wet transfer (100 V, 1 h), and membranes blocked with BSA (5% (w/v)) in TBS-T (50 mM TRIS, 150 mM NaCl, 0.1% Tween-20, pH 7.5) for 1 h at RT, followed by overnight incubation at 4°C with rabbit α-SHH (Santa Cruz Biotechnology; sc-9024; 1:200) in TBS-T with BSA (0.5% (w/v)) or mouse α-Tubulin (Santa Cruz Biotechnology; sc-8035; 1:200) in TBS-T with BSA (0.5% (w/v)). Membranes were washed with TBS-T (4 × 5 min) and incubated at RT for 1 h with HRP-conjugated Goat-α-mouse IgG (Advansta; 1:10,000) in TBS-T with BSA (0.5% (w/v)) or Goat-α-rabbit IgG (Advansta; 1:10,000) in TBS-T with BSA (0.5% (w/v)). Membranes were washed with TBS-T (4 × 5 min) and developed with Luminata Crescendo Western HRP substrate (Millipore) on a Fujifilm LAS-3000 imager. YnC15-labelled SHH band intensities were quantified using ImageJ 1.50i (National Institute of Health, USA).
HEK293a SHH+ cells (5,000 cells/well) were plated in a 96-well plate in DMEM/FBS […]
(50 µL/well) and cultured for 24 h. […]

[4] = Detergent/BSA titration for polarised emission of Pal-SHH-FAM (fluorescence anisotropy); details: BSA titration with Pal-SHH-FAM; read-out: polarisation EC50
[5] = HHAT-P100(sol) activity, SHH-FAM palmitoylation, 25 min reaction, four parameter fit, read-out: IC50 of HHAT inhibition
[6] = HHAT, SHH-FAM substrate competition, read-out: IC50 as competitive inhibitor of SHH-FAM palmitoylation

T1 sequence (Q5VTY9 whole entry): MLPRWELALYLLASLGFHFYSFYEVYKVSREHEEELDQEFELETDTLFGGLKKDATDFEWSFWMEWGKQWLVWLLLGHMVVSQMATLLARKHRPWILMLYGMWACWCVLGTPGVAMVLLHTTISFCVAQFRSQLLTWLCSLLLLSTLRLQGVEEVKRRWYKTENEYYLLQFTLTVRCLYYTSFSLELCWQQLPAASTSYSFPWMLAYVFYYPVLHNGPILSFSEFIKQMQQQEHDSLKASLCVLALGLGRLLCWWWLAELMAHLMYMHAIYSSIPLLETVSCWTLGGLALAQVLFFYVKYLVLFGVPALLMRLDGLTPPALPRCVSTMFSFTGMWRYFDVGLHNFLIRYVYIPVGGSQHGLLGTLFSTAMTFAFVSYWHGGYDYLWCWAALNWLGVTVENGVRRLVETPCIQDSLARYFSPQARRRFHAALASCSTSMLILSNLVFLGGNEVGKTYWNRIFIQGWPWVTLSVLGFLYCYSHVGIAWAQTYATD

Compound: RUSKI-41
pIC50 (HHAT [1]; [5]): 5.24

Compound: CCC(C)CNCC(=O)N1CCc2sccc2C1COc1cccc(C)c1 (centres unmarked) [RUSKI-43]
pIC50 (HHAT [1]; [5]): 4.77

Compound: CGPGRGFGKRK-NH2 [SHH]
pIC50 (HHAT [1]; [6]): 6.43

Compound: RUSKI-101
pIC50 (HHAT [1]; [5]): 5.68

Compound: CCCCCCCCCCCCCCCC(=O)N[C@@H](CS)C(=O)NCC(=O)N1CCC[C@H]1C(=O)NCC(=O)N[C@@H](CCCNC(=N)N)C(=O)NCC(=O)N[C@@H](Cc1ccccc1)C(=O)NCC(=O)N[C@@H](CCCCN)C(=O)N[C@@H](CCCNC(=N)N)C(=O)N[C@@H](CCCCN)C(N)=O [Pal-SHH] (HELM PEPTIDE1{[CCCCCCCCCCCCCCCC(=O)[*:2]].C.G.P.G.R.G.F.G.K.R.K.[am]}$$$$V2.0)
pIC50 (HHAT [1]; [6]): 7.00

Compound: Cc1cc(C2CCCCC2)n(O)c(=O)c1 [Ciclopirox]
inhibition at 25 µM (HHAT [2]): > 80%

Continued, in another order:

inhibition at 25 µM (HHAT [2]): > 80%
Compound: O=C1Cc2cc(CCN3CCN(c4nsc5ccccc45)CC3)c(Cl)cc2N1 [Ziprasidone·HCl]

inhibition at 25 µM (HHAT [2]): > 80%
pIC50 (HHAT [1]; [5]): 5.70
Compound: CCC(C)CNCC(=O)N1CCc2sccc2C1c1cccc(C)n1 (centres unmarked) [RUSKI-201]
inhibition of SHH acylation (YnC15 tagging) by in-gel fluorescence ([3]; IGF): showed inhibition of SHH acylation
inhibition of SHH acylation assessed by increased molecular weight in anti-SHH blotting ([3]; α-SHH western blot): displayed inhibition

pEC50 [4]: 6.31
Compound: bovine serum albumin [BSA]

inhibition at 25 µM (HHAT [2]): > 80%
Compound: Oc1ccc(C2CNCCc3c2cc(O)c(O)c3Cl)cc1 (centres unmarked) [Fenoldopam Mesylate]

pIC50 (HHAT [1]; [6]): 6.36
Compound: SHH(FL): N-terminal signalling domain of the mature full-length SHH protein (residues 24–193), expressed in E. coli without lipid modification

Vmax (HHAT [1]; Pal-CoA titration, SHH-FAM palmitoylation): 0.081 pmol min^–1
Km (HHAT [1]; Pal-CoA titration, SHH-FAM palmitoylation, initial velocity conditions, read-out: apparent KM): 0.17 µM
Vmax (HHAT [1]; Pal-CoA titration, initial velocity conditions): 0.081 pmol/min
Compound: CCCCCCCCCCCCCCCC(=O)SCCNC(=O)CCNC(=O)[C@H](O)C(C)(C)COP(=O)(O)OP(=O)(O)OC[C@H]1O[C@@H](n2cnc3c(N)ncnc32)[C@H](O)[C@@H]1OP(=O)(O)O [Pal-CoA, palmitoyl-CoA]
